# Source: ChEMBL document CHEMBL6127139, “Lysine-Targeted Covalent Inhibitors of PI3Kδ Synthesis and Screening by In Situ Interaction Upgradation” (J Med Chem, 2024)
# What was measured:
# [1] = Growth inhibition of PI3Kdelta-overexpressing human Pfeiffer cells incubated for 72 hrs by MTT assay; assay type: functional
# [2] = Growth inhibition of PI3Kdelta-overexpressing human SU-DHL-6 cells incubated for 72 hrs by MTT assay; assay type: functional
# [3] = Chemical reactivity of the compound with N-Boc-Lysine assessed as half-life at 1 uM by HPLC analysis; assay type: physicochemical; details: incubation with N-Boc-Lysine
# [4] = target: T1, Phosphatidylinositol 4,5-bisphosphate 3-kinase catalytic subunit delta isoform (Homo sapiens, UniProt O00329); assay: Inhibition of recombinant PI3Kdelta (unknown origin) using PIP2:3PS as substrate preincubated for 20 mins followed by ATP addition and measured after 1 hrs by ADP-Glo reagent based assay
# T1 sequence (O00329 whole entry): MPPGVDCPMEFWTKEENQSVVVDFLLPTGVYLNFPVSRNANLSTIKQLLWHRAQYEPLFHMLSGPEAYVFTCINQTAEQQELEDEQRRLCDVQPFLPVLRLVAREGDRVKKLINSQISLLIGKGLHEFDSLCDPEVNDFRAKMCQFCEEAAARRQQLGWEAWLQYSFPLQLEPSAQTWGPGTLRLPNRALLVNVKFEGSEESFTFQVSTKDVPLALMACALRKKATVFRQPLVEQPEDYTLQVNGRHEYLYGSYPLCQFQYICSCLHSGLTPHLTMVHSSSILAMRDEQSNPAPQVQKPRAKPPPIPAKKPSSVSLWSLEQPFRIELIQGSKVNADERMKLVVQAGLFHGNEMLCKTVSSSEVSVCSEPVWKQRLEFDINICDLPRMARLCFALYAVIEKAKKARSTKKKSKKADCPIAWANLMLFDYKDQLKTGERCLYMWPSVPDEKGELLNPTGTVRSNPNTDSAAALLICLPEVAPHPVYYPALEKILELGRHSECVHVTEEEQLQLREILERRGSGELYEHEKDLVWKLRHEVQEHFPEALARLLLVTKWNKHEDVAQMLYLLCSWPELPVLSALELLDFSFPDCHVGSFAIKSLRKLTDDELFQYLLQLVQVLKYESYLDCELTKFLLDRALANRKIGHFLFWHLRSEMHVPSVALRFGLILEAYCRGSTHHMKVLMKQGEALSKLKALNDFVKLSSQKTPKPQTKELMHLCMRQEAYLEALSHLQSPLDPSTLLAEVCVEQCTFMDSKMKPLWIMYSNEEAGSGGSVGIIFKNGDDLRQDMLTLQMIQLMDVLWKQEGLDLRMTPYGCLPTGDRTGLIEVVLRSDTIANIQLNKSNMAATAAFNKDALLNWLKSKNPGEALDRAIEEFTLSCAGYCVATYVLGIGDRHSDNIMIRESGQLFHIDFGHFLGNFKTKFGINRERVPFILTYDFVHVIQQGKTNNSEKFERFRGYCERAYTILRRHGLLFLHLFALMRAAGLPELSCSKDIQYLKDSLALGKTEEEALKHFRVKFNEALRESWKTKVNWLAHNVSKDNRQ
# [5] = target: Phosphatidylinositol 4,5-bisphosphate 3-kinase catalytic subunit alpha isoform (Homo sapiens, UniProt P42336); assay: Inhibition of recombinant PI3Kalpha (unknown origin) using PIP2:3PS as substrate preincubated for 20 mins followed by ATP addition and measured after 1 hrs by ADP-Glo reagent based assay
# Chain of Phosphatidylinositol 4,5-bisphosphate 3-kinase catalytic subunit alpha isoform (P42336 whole entry, canonical isoform): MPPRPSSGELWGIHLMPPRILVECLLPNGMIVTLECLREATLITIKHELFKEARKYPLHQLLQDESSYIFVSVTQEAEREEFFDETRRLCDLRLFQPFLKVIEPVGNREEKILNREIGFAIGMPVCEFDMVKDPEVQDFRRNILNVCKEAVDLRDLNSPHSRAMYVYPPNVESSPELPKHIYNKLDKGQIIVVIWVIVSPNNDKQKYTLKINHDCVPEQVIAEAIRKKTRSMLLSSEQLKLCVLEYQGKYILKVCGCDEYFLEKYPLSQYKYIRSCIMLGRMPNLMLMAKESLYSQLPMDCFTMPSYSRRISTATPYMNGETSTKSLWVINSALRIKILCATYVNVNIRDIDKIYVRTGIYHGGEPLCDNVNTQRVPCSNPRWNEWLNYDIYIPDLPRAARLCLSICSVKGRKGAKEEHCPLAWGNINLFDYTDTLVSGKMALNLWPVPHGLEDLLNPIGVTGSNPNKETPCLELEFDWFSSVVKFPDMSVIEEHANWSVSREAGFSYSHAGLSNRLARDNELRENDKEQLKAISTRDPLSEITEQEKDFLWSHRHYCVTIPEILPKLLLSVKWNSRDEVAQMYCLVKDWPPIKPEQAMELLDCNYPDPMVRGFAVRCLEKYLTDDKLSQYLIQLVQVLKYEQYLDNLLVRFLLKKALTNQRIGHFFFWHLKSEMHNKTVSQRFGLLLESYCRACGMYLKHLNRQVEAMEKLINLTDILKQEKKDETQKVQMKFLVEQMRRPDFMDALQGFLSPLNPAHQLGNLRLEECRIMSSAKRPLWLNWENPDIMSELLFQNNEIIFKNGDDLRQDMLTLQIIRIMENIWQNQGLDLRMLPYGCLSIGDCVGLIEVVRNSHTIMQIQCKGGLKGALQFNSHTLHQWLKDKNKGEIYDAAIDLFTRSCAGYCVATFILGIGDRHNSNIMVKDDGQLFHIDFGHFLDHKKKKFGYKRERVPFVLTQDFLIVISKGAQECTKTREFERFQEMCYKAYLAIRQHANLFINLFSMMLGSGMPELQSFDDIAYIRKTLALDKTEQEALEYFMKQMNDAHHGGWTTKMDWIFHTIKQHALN
# [6] = Selectivity index, ratio of IC50 for inhibition of recombinant PI3Kalpha (unknown origin) using PIP2:3PS as substrate to IC50 for inhibition of recombinant PI3Kdelta (unknown origin) using PIP2:3PS as substrate
# [7] = Selectivity index, ratio of IC50 for inhibition of recombinant PI3Kbeta (unknown origin) using PIP2:3PS as substrate to IC50 for inhibition of recombinant PI3Kdelta (unknown origin) using PIP2:3PS as substrate
# [8] = test system: Raji; assay: Growth inhibition of human Raji cells incubated for 72 hrs by MTT assay; assay type: functional
# [9] = Selectivity index, ratio of IC50 for inhibition of recombinant PI3Kgamma (unknown origin) using PIP2:3PS as substrate to IC50 for inhibition of recombinant PI3Kdelta (unknown origin) using PIP2:3PS as substrate
Structure (SMILES),half-life at 1 µM [3],IC50 [4],IC50 [5],Ratio IC50 [6],Ratio IC50 [7],GI50 [8],Ratio IC50 [9],GI50 [1],GI50 [2]
COc1ncc(-c2ccc3ncnc(N[C@H]4CCN(C(=O)C5CCOCC5)C4)c3c2)cc1C(=O)Oc1ccc([N+](=O)[O-])cc1,< 1 min,6.6 nM,120 nM,–,–,–,–,575 nM,52 nM
COc1ncc(-c2ccc3ncnc(N[C@H]4CCN(C(=O)C5CCOCC5)C4)c3c2)cc1C(=O)Oc1ccc(Cl)cc1,12.7 min,0.79 nM,> 1000 nM,–,–,–,–,276 nM,16 nM
O=Cc1cc(-c2ccc3ncnc(N[C@H]4CCN(C(=O)C5CCOCC5)C4)c3n2)ccc1O,< 1 min,5.58 nM,–,–,–,–,–,5480 nM,710 nM
COc1ncc(-c2ccc3ncnc(N[C@H]4CCN(C(=O)C5CCOCC5)C4)c3n2)cc1C(=O)Oc1ccc(Cl)cc1Cl,1.1 min,1.42 nM,> 1000 nM,–,–,–,–,752 nM,53 nM
COc1ncc(-c2ccc3ncnc(N[C@H]4CCN(C(=O)C5CCOCC5)C4)c3n2)cc1C(=O)Oc1ccc(C(F)(F)F)cc1,1.7 min,1.01 nM,93.3 nM,–,–,–,–,1260 nM,96 nM
COC(=O)c1cc(-c2ccc3ncnc(N[C@H]4CCN(C(=O)C5CCOCC5)C4)c3n2)cnc1OC,> 1440 min,1.21 nM,> 1000 nM,–,–,–,–,447 nM,42 nM
COc1ncc(-c2ccc3ncnc(N[C@H]4CCN(C(=O)C5CCOCC5)C4)c3c2)cc1C(=O)Oc1ccc(C(F)(F)F)cc1,1.9 min,0.93 nM,330 nM,–,–,–,–,816 nM,133 nM
COc1ncc(-c2ccc3ncnc(N[C@H]4CCN(C(=O)C5CCOCC5)C4)c3c2)cc1C(=O)Oc1ccc(F)cc1F,3.1 min,1.47 nM,39.3 nM,–,–,–,–,433 nM,64 nM
COc1ncc(-c2ccc3ncnc(N[C@H]4CCN(C(=O)C5CCOCC5)C4)c3c2)cc1C(=O)Oc1c(F)cc(F)cc1F,< 1 min,1.08 nM,86.9 nM,–,–,–,–,260 nM,32 nM
COc1ncc(-c2ccc3ncnc(N[C@H]4CCN(C(=O)C5CCOCC5)C4)c3n2)cc1C(=O)Oc1ccc(F)cc1F,3.2 min,3.19 nM,29.8 nM,–,–,–,–,420 nM,31 nM
COc1ncc(-c2ccc3ncnc(N[C@H]4CCN(C(=O)C5CCOCC5)C4)c3c2)cc1C(=O)Oc1ccc(Cl)cc1Cl,1.2 min,1.5 nM,347 nM,–,–,–,–,346 nM,142 nM
COC(=O)c1cc(-c2ccc3ncnc(N[C@H]4CCN(C(=O)C5CCOCC5)C4)c3c2)cnc1OC,> 1440 min,1.59 nM,> 1000 nM,–,–,–,–,1240 nM,50 nM
C=CC(=O)Nc1cc(-c2ccc3ncnc(N[C@H]4CCN(C(=O)C5CCOCC5)C4)c3c2)cnc1OC,> 1440 min,8.59 nM,–,–,–,–,–,1520 nM,710 nM
COc1ncc(-c2ccc3ncnc(N[C@H]4CCN(C(=O)C5CCOCC5)C4)c3n2)cc1C(=O)Oc1cccnc1,2.8 min,0.7 nM,254 nM,–,–,–,–,662 nM,122 nM

# Further lines, with some results ahead:
half-life at 1 µM [3],IC50 [4],IC50 [5],Ratio IC50 [6],Ratio IC50 [7],GI50 [8],Ratio IC50 [9],Structure (SMILES),GI50 [1],GI50 [2]
2.1 min,1.48 nM,–,–,–,–,–,C#Cc1ccc(-c2ccc3ncnc(N[C@H]4CCN(C(=O)C5CCOCC5)C4)c3n2)cc1C=O,2320 nM,430 nM
< 1 min,2.31 nM,10.4 nM,–,–,–,–,COc1ncc(-c2ccc3ncnc(N[C@H]4CCN(C(=O)C5CCOCC5)C4)c3n2)cc1C(=O)Oc1ccc([N+](=O)[O-])cc1,788 nM,20 nM
10.1 min,2.57 nM,> 1000 nM,–,–,–,–,COc1ncc(-c2ccc3ncnc(N[C@H]4CCN(C(=O)C5CCOCC5)C4)c3n2)cc1C(=O)Oc1ccc(Cl)cc1,776 nM,157 nM
359 min,1.17 nM,54.2 nM,–,–,–,–,COc1ccc(OC(=O)c2cc(-c3ccc4ncnc(N[C@H]5CCN(C(=O)C6CCOCC6)C5)c4n3)cnc2OC)cc1,138 nM,8 nM
2.3 min,93.5 nM,–,–,–,–,–,COc1ncc(-c2ccc3ncnc(N[C@H]4CCN(C(=O)C5CCOCC5)C4)c3n2)cc1C=O,310 nM,350 nM
387 min,2.02 nM,56.5 nM,–,–,–,–,COc1ccc(OC(=O)c2cc(-c3ccc4ncnc(N[C@H]5CCN(C(=O)C6CCOCC6)C5)c4c3)cnc2OC)cc1,225 nM,6 nM
–,–,–,9,97,> 10000 nM,64,COc1ncc(-c2ccc3ncnc(N[C@H]4CCN(C(=O)C5CCOCC5)C4)c3c2)cc1C#N,–,4550 nM
> 1440 min,47.8 nM,–,–,–,–,–,C=CC(=O)Nc1cc(-c2ccc3ncnc(N[C@H]4CCN(C(=O)C5CCOCC5)C4)c3n2)cnc1OC,1190 nM,650 nM
326 min,6.11 nM,13.5 nM,–,–,–,–,COc1ncc(-c2ccc3ncnc(N[C@H]4CCN(C(=O)C5CCOCC5)C4)c3n2)cc1C(=O)Oc1ccc(C)cc1,139 nM,8 nM
< 1 min,1.86 nM,51.4 nM,–,–,–,–,COc1ncc(-c2ccc3ncnc(N[C@H]4CCN(C(=O)C5CCOCC5)C4)c3n2)cc1C(=O)Oc1ccc(C#N)cc1,425 nM,32 nM
420 min,24.2 nM,–,–,–,–,–,COc1ncc(-c2ccc3ncnc(N[C@H]4CCN(C(=O)C5CCOCC5)C4)c3c2)cc1CCl,490 nM,310 nM
< 1 min,6.46 nM,–,–,–,–,–,O=Cc1cc(-c2ccc3ncnc(N[C@H]4CCN(C(=O)C5CCOCC5)C4)c3c2)ccc1O,7780 nM,320 nM
1.9 min,2.67 nM,–,–,–,–,–,C#Cc1ccc(-c2ccc3ncnc(N[C@H]4CCN(C(=O)C5CCOCC5)C4)c3c2)cc1C=O,4180 nM,850 nM
2.5 min,0.26 nM,663 nM,–,–,–,–,COc1ncc(-c2ccc3ncnc(N[C@H]4CCN(C(=O)C5CCOCC5)C4)c3c2)cc1C(=O)Oc1cccnc1,199 nM,19 nM
430 min,10.4 nM,–,–,–,–,–,COc1ncc(-c2ccc3ncnc(N[C@H]4CCN(C(=O)C5CCOCC5)C4)c3n2)cc1CCl,570 nM,340 nM
353 min,2.47 nM,145 nM,–,–,–,–,COc1ncc(-c2ccc3ncnc(N[C@H]4CCN(C(=O)C5CCOCC5)C4)c3c2)cc1C(=O)Oc1ccc(C)cc1,137 nM,3 nM
2.1 min,48.8 nM,–,–,–,–,–,COc1ncc(-c2ccc3ncnc(N[C@H]4CCN(C(=O)C5CCOCC5)C4)c3c2)cc1C=O,200 nM,170 nM
< 1 min,4.53 nM,> 1000 nM,–,–,–,–,COc1ncc(-c2ccc3ncnc(N[C@H]4CCN(C(=O)C5CCOCC5)C4)c3c2)cc1C(=O)Oc1ccc(C#N)cc1,479 nM,27 nM
< 1 min,4.93 nM,> 1000 nM,–,–,–,–,COc1ncc(-c2ccc3ncnc(N[C@H]4CCN(C(=O)C5CCOCC5)C4)c3n2)cc1C(=O)Oc1c(F)cc(F)cc1F,438 nM,65 nM
